Peptide text beside a SMILES is read from it. * marks the point of attachment. Cbz = O=C(OCc1ccccc1)*
Legend:
HDM2 = target: T1, HDM2 (Homo sapiens, UniProt Q00987); test: Limited proteolysis of GST-HDM2 by trypsin; format: binding; settings: 10 μM compound, 40 ng trypsin, 15 min on ice
T1 construct: made in house; host or cells: bacteria (pGEX-4T-2 vector)
Protocol: GST-HDM2, GST-HDMX were incubated with 10 μM of JNJ-#1 or with DMSO for control. Then 40 ng trypsin were added and the mixture was incubated for 15 min on ice. […] HDM2 was detected by incubating the membrane with the HDM2 antibodies 4B2, SMP14 and C18. Western blots were developed by ECL.
40 ng of trypsin were added and the mixture was incubated for 15 min on ice. Samples were separated by 10% SDS-PAGE gel and blotted onto Immobilon P membrane. The membrane was incubated with the anti-HDM2 antibody 4B2. The Western blot was developed by ECL.
Then 40 ng trypsin was added and the mixture was incubated for 15 min on ice. Proteolysis was stopped by addition of 2× sample buffer. Samples were loaded onto an 12 or 15% SDS-PAGE gel and HDM2 or HDMX were detected by Western blotting.

p53 ubiquitination = test: Cellular p53 ubiquitylation assay in U2OS cells; format: cell-based; settings: His-tagged ubiquitin, 10 μM, 2 hours
Protocol: After incubation ubiquitylated proteins were purified by adsorption to Ni2+-agarose and separated by SDS-PAGE. P53 was detected by Western blotting. (TCL: Total cell lysate)
To test this option, we performed an cellular ubiquitylation assay in the presence of the compound.

T1 sequence (Q00987 whole entry): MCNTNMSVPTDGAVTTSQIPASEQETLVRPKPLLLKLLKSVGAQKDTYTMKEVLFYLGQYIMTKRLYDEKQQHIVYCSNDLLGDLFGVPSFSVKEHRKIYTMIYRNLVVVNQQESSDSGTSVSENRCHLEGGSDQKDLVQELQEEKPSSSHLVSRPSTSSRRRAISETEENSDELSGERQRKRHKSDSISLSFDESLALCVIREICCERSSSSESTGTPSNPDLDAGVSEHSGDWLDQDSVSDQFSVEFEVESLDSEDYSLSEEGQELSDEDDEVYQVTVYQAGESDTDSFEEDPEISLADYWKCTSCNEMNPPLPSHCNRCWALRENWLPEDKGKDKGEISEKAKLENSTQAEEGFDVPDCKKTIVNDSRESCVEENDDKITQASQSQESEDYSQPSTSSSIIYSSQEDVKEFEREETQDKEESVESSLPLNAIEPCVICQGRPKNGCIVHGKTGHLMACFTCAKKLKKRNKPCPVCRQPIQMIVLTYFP

Structure (SMILES) | proteolysis of GST-HDM2 by trypsin (HDM2) | ubiquitylation of p53 (p53 ubiquitination)
CC(C)C[C@@H](C=O)NC(=O)[C@H](CC(C)C)NC(=O)[C@H](CC(C)C)NC(=O)OCc1ccccc1 [MG132] (Cbz-Leu-Leu-Leu-aldehyde) | had no affect | 
COc1ccc(C2=N[C@@H](c3ccc(Cl)cc3)[C@@H](c3ccc(Cl)cc3)N2C(=O)N2CCNC(=O)C2)c(OC(C)C)c1 [Nutlin-3] |  | strongly reduced
